Assay results taken from patent publication US9314498B2, “Bacteriocin derived from Lactobacillus rhamnosus” (priority 2011, dated 2016).

Legend:
[1] = Measurement of the isoelectric point of the synthesized peptides; type: physicochemical; details: synthesized peptide
Source text: Among antimicrobial peptides, hBD2 (human P-defensin-2 (see Eur J., 2002, Oral Sci. (109), 121-124)) is well known as a basic antimicrobial peptide, and has an isoelectric point of about 10. However, the isoelectric points of Kog1 and Kog2 of the embodiment 2 were higher than the isoelectric point of hBD2, and more similar to the isoelectric points of antimicrobial peptides derived from mammals. Thus, Kog1 and Kog2 were confirmed to have less cytotoxicity.

[2] = test system: Streptococcus sobrinus B-13 strain; assay: Antimicrobial activity against Streptococcus sobrinus B-13; type: cell-based; details: tested 0 to 100 μM
Method: [The procedure below names another organism; the source lists this organism under the same test.] (§1) The Candida albicans GDH18 strain was precultured using SD medium (Difco) at 37° C. for 24 hours under aerobic conditions. The Streptococcus sobrinus B-13 strain, Streptococcus mutans NCTC10449 strain and Streptococcus mutans Ingbritt strain were precultured using TSB medium (Difco) supplemented with 5% yeast extract (Difco) at 37° C. for 24 hours under aerobic conditions. The Porphyromonas gingivalis Hudoi001 strain and Aggregatibacter actinomycetemcomitans Hudoe001 strain were precultured using BHI medium (Difco) supplemented with hemin (5 mg/L) and vitamin K3 (1 mg/L) at 37° C. for 96 hours under anaerobic conditions with Anaero Pack System (Mitsubishi Gas Chemical Company, Inc.).
(§2) After the culture, the cells of the Candida, cariogenic bacteria and periodontal disease bacteria were collected by centrifugation at 1000×g, and washed twice with 1 mM phosphate buffer (pH 6.8). The cells were then suspended such that the final concentration was 1×10^8 cfu/ml or 1×10^7 cells/m. For suspension of the Streptococcus strains, ultrasonic treatment was also carried out.
Evaluation of the antimicrobial activity was carried out by the method by Edgerton and others (1998) with some modifications. With 20 mL of 1 mM phosphate buffer containing 0 to 25 μM Kog1 or Kog2 synthesized in Example 1, 20 μl of the suspension of the Candida albicans GDH18 strain cultured and prepared by the method described in the above Preparation Example was mixed, and the resulting mixture was incubated at 37° C. for 90 minutes with shaking. As a control, 20 ml of 1 mM phosphate buffer alone was used. The reaction was stopped by addition of 360 ml of YNB medium (Difco), and the number of colonies formed (colony forming units; CFUs) was counted together with the number of colonies in the control, to determine the percentage of living bacterial cells. That is, the equation of: (CFUs of suspension containing Kog1 or Kog2/CFU ml^−1 of control suspension)×100 was used to calculate the percentage. […]

[3] = test system: Streptococcus mutans NCTC10449 strain; assay: Antimicrobial activity against Streptococcus mutans NCTC10449; type: cell-based; details: 0 to 100 μM, FIG. 4
[4] = test system: Porphyromonas gingivalis Hudoi001 strain; assay: Antimicrobial activity against Porphyromonas gingivalis Hudoi001; type: cell-based; details: not shown in the figures
Method: as §1, §2
That is, it is assumed that, in Examples described in Patent Literature 1, the Lactobacillus rhamnosus KO3 strain expressed Kog1 and Kog2, and the expressed Kog1 and Kog2 exerted antimicrobial activity against the Porphyromonas gingivalis Hudoi001 strain. […]

MC3T3-E1 cells = assay: Differentiation into osteoblasts: Type-I collagen expression by real-time quantitative RT-PCR; type: cell-based, mouse
Method: MC3T3-E1 cells, which are mouse-derived osteoblast-like cells, were used. The MC3T3-E1 cells were cultured in α-modified Eagle's Medium (α-MEM) supplemented with 10% FBS (Biological industries, Haemek, Israel), L-glutamine, antibiotic mixture (Invitrogen), 50 μg/ml ascorbic acid (Sigma), and 0 nM, 250 nM, 500 nM or 1000 nM Kog2, at 37° C. under 5% CO2 on plastic or titanium. From the thus cultured MC3T3-E1 cells, total RNA was extracted using TRIzol reagent (Invitrogen), and cDNA was then prepared using ReverTra Ace reverse transcriptase (Toyobo Co., Ltd.). Subsequently, the prepared cDNA was used for analyzing expression of Type-I collagen, which is a differentiation marker for osteoblasts, and of β-actin, which is an endogenous control, by real-time quantitative RT-PCR. In the real-time quantitative RT-PCR, Type-I collagen was analyzed using the forward primer shown in SEQ ID NO: 8, the reverse primer shown in SEQ ID NO: 9 and the probe shown in SEQ ID NO: 10. β-actin was analyzed using the forward primer shown in SEQ ID NO: 11, the reverse primer shown in SEQ ID NO: 12, and the probe shown in SEQ ID NO: 13.

Substance: Kog2: peptide having the amino acid sequence shown in SEQ ID NO: 2, bacteriocin of Lactobacillus rhamnosus, synthesized by the tea-bag method (MTKVRSSRLRPLTLRLLSAPARAQFLTIACRAILRYDLINS; listed as Lactobacillus rhamnosus)
- isoelectric point (pl) [1]: 12.38
- peptide concentration at which 100% of the strain was killed [2]: 0.39 µM
- antimicrobial activity compared to the other antimicrobial peptides (hBD2, lysozyme) [3]: capable of killing a larger amount of Streptococcus mutans even at relatively low peptide concentration
- antimicrobial activity [4]: capable of exerting antimicrobial activity
- value of Type I collagen/β-actin versus no Kog2 added (MC3T3-E1 cells; Kog2 at 250 nM vs ctrl): 3 times
- concentration that best promotes differentiation into osteoblasts (MC3T3-E1 cells; tested 0, 250, 500, 1000 nM): about 250 nM
